Results: US20250144230A1, “LINKERS FOR USE IN ANTIBODY DRUG CONJUGATES” (Orum Therapeutics, Inc., priority 2021, published 2025)
Each block holds one molecule with its values, some of them ahead of it.

Assays:
[1] = system: MV-4-11 human acute myeloid leukemia cells; test: In vivo MV-4-11 subcutaneous myeloid leukemia tumor model; set-up: species or system Athymic Nude mice
Method: Subcutaneous tumor model—MV-4-11 human acute myeloid leukemia cells (1×10^7 cells in 0.1 mL) were subcutaneously inoculated into the right flank of female Athymic Nude mice. Mice were treated with each test article when the tumor size reached 100-150 mm^3. 10 mg/kg of CD33-D antibody-Compound (XL) conjugate (in 20 mM succinate, 8% sucrose, 0.01% Tween-20 pH 5.5) was delivered by intravenous administration (IV) once a week for 2 weeks. 0.4 mg/kg of Compound (XL) (in 5% NMP, 45% PEG300, 20 mM NaPi pH 6.5) and 10 mg/kg of ARV-825 (as described in Liu, et al. Chemistry & Biology 2015, volume 22, pages 755-763) in 1.5 mg/mL, 5% Kolliphor, HS15 WFI Buffer was treated by intraperitoneal administration (IP) once a day for 14 days. Tumor size and mouse body weight were measured twice per week. Subcutaneous tumor volume (mm^3) was calculated with the following formula: (a×b^2/2) where ‘b’ is the smallest diameter and ‘a’ is the largest diameter. The study endpoint is that individual mice were euthanized following respective tumor volume ≥1,000 mm^3 or day 60, whichever came first.

MV-4-11 cells = test: In vitro MV-4-11 antiproliferation assay (alamarBlue); format: cell-based, human; settings: 4 days, test article alone
Method: MV-4-11 cells were exposed to varying concentrations of conjugates or antibodies for 4 days with/without 1 μM of the blocking antibody Gemtuzumab or Trastuzumab. Viability of the cells was determined by alamarBlue. The antiproliferative activity of the gemtuzumab conjugate of Compound (XL) and the unconjuaged BRD4 degrader small molecule Compound 40-3 are showin in FIG. 13. […] The antibodies alone were not active up to […].

BRD4 = molecular target: T1, BRD4 (Homo sapiens, UniProt O60885); test: In vitro BRD4 protein degradation assay (Western blot); format: cell-based; settings: 10 nM, MV4-11 cells, overnight
T1 construct: endogenous in cells; host or cells: MV4-11
Method: The ability of the claimed conjugates to degrade BRD4 was measured using an in vitro degradation assay. MV4-11 cells were incubated with test article overnight. Protein was loaded to 4-12% NuPAGE Bis-Tris gel. Western blot with rabbit anti-BRD4 Ab (Cell Signaling #13440) was performed at 1:1,000 dilution and re-blotting with β-actin HRP (Cell Signaling #5125) was performed at 1:1,000. The degradation activity of the gemtuzumab conjugate Compound (XL) and the unconjuaged BRD4 degrader small molecule Compound 40-3 are shown in FIG. 14.

CD79b [2] = molecular target: T2, CD79b (Homo sapiens, UniProt P40259); test: Binding of conjugate and parent antibody to cancer cells (flow cytometry), CD79b / Ramos; settings: 1 hour at 4° C.; conjugate at DARs 2.0, 3.2 and 4.6
T2 construct: endogenous in cells; host or cells: Ramos
T2 sequence (P40259 29-229): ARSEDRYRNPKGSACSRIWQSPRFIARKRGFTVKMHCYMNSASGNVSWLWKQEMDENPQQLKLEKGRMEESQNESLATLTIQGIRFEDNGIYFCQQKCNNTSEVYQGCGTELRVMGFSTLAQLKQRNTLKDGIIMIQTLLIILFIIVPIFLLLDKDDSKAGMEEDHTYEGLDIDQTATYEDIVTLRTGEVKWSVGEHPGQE
T2 sequence (P11912 33-226 partner): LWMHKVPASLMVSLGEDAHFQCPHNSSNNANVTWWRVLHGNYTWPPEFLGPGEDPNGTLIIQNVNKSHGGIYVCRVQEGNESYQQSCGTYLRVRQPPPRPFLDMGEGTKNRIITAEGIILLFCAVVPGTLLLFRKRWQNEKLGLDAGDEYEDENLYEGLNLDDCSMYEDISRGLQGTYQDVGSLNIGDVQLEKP

CD79b [3] = molecular target: T3, CD79b (UniProt P40259 29-229, limits assumed); test: flow cytometry binding to Ramos cells (procedure of Example 10)
T3 construct: whole, on cells; Endogenous antigen on the cell line
T3 sequence (looked up): T2 sequence (P40259 29-229)

Molecule: Cc1sc2c(c1C)C(c1ccc(Cl)cc1)=N[C@@H](CC(=O)Nc1ccc(OCCOCCOCCOCCNc3cccc4c3C(=O)N(C3CCC(=O)NC3=O)C4=O)cc1)c1nnc(C)n1-2 (stereo partly drawn) [ARV-825]
effect on MV-4-11 tumor growth ([1]; 10 mg/kg IP once a day for 14 days): inactive

reduction in BRD4 protein band intensity (BRD4): > 90%
Molecule: Cn1cc(-c2cc(NC(=O)CCCCC(=O)NCCCCNc3cccc4c3C(=O)N(C3CCC(=O)NC3=O)C4=O)ccc2Oc2ccc(F)cc2F)c2cc[nH]c2c1=O (stereo not drawn) [Compound 40-3, N′-[4-(2,4-difluorophenoxy)-3-{6-methyl-7-oxo-1H-pyrrolo[2,3-c]pyridin-4-yl}phenyl]-N-(4-{[2-(2,6-dioxopiperidin-3-yl)-1,3-dioxoisoindol-4-yl]amino}butyl)hexanediamide, reference compound]
effect on MV-4-11 tumor growth ([1]; 0.4 mg/kg IP once a day for 14 days (equivalent to conjugated payload dose)): inactive
antiproliferative activity against MV-4-11 cells (in words) (MV-4-11 cells): highly active

Molecule: Synagis N297A: non-binding control antibody
CD79b binding on Ramos cells by flow cytometry (in words) (CD79b [2]): relatively negligible signal intensity

EC50 (CD79b [3]): 0.74 nM
B1: CD79b-A antibody (antibody, V domains shown)
VH: EVQLVESGGGLVQPGGSLRLSCAASGYTFSSYWIEWVRQAPGKGLEWIGEILPGGGDTNYNEIFKGRATFSADTSKNTAYLQMNSLRAEDTAVYYCTRRVPIRLDYWGQGTLVTVSS
VL: DIQLTQSPSSLSASVGDRVTITCKASQSVDYEGDSFLNWYQQKPGKAPKLLIYAASNLESGVPSRFSGSGSGTDFTLTISSLQPEDFATYYCQQSNEDPLTFGQGTKVEIK
notes: also called Polatuzumab
